Measurements taken from ChEMBL document CHEMBL1201862, “PubChem BioAssay data set” (2004).
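The compound was tested at five concentrations on cells cultured in 96-well plates, with a 48-hour exposure period. GI50 marks 50% less growth.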 Active and inactive are the calls of the source. Cut-off read from the data, not from the text of the source: active = GI50 up to about 1.1 µM and inactive = higher.

Columns and labels:
Test in all cases: growth of human tumour cells (NCI), 48 h
786-0 = tested on: 786-0
A549 = tested on: A549
ACHN = tested on: ACHN
CAKI-1 = tested on: CAKI-1
CCRF-CEM = tested on: CCRF-CEM
COLO 205 = tested on: COLO 205
DU-145 = tested on: DU-145
EKVX = tested on: EKVX
HCC 2998 = tested on: HCC 2998
HCT-116 = tested on: HCT-116
HCT-15 = tested on: HCT-15
HL-60 = tested on: HL-60
HOP-62 = tested on: HOP-62
HOP-92 = tested on: HOP-92
HT-29 = tested on: HT-29
IGROV-1 = tested on: IGROV-1
K562 = tested on: K562
KM12 = tested on: KM12
LOX IMVI = tested on: LOX IMVI
M14 = tested on: M14
MCF7 = tested on: MCF7
MDA-MB-231 = tested on: MDA-MB-231
MDA-MB-435 = tested on: MDA-MB-435
MDA-N = tested on: MDA-N
MOLT-4 = tested on: MOLT-4
Malme-3M = tested on: Malme-3M
NCI-H226 = tested on: NCI-H226
NCI-H23 = tested on: NCI-H23
NCI-H522 = tested on: NCI-H522
NCI/ADR-RES = tested on: NCI/ADR-RES
OVCAR-3 = tested on: OVCAR-3
OVCAR-4 = tested on: OVCAR-4
OVCAR-5 = tested on: OVCAR-5
OVCAR-8 = tested on: OVCAR-8
PC-3 = tested on: PC-3
RPMI-8226 = tested on: RPMI-8226
RXF 393 = tested on: RXF 393
SF-295 = tested on: SF-295
SF-539 = tested on: SF-539
SK-MEL-28 = tested on: SK-MEL-28
SK-MEL-2 = tested on: SK-MEL-2
SK-MEL-5 = tested on: SK-MEL-5
SK-OV-3 = tested on: SK-OV-3
SN12C = tested on: SN12C
SNB-19 = tested on: SNB-19
SNB-75 = tested on: SNB-75
SW-620 = tested on: SW-620
T47D = tested on: T47D
TK-10 = tested on: TK-10
U-251 = tested on: U-251
UACC-257 = tested on: UACC-257
UACC-62 = tested on: UACC-62
UO-31 = tested on: UO-31
A498 = tested on: A498
Hs-578T = tested on: Hs-578T
NCI-H460 = tested on: NCI-H460
SF-268 = tested on: SF-268
SR = tested on: SR

Question: What does the source list for `CCN(CC)CCCNc1nc(=O)[nH]c(C)c1C(=O)Nc1ccc2c(c1)c1ccccc1n2CC`?
Answer: GI50 (786-0): > 100 µM (inactive); GI50 (A549): > 100 µM (inactive); GI50 (ACHN): > 100 µM (inactive); GI50 (CAKI-1): > 100 µM (inactive); GI50 (CCRF-CEM): > 100 µM (inactive); GI50 (COLO 205): > 100 µM (inactive); GI50 (DU-145): > 100 µM (inactive); GI50 (EKVX): > 100 µM (inactive); GI50 (HCC 2998): > 100 µM (inactive); GI50 (HCT-116): > 100 µM (inactive); GI50 (HCT-15): > 100 µM; GI50 (HL-60): > 100 µM (inactive); GI50 (HOP-62): > 100 µM (inactive); GI50 (HOP-92): > 100 µM (inactive); GI50 (HT-29): > 100 µM (inactive); GI50 (IGROV-1): > 100 µM (inactive); GI50 (K562): > 100 µM (inactive); GI50 (KM12): > 100 µM (inactive); GI50 (LOX IMVI): > 100 µM (inactive); GI50 (M14): > 100 µM (inactive); GI50 (MCF7): > 100 µM (inactive); GI50 (MDA-MB-231): > 100 µM (inactive); GI50 (MDA-MB-435): > 100 µM (inactive); GI50 (MDA-N): > 100 µM (inactive); GI50 (MOLT-4): > 100 µM (inactive); GI50 (Malme-3M): > 100 µM (inactive); GI50 (NCI-H226): > 100 µM (inactive); GI50 (NCI-H23): > 100 µM (inactive); GI50 (NCI-H522): > 100 µM (inactive); GI50 (NCI/ADR-RES): > 100 µM (inactive); GI50 (OVCAR-3): > 100 µM (inactive); GI50 (OVCAR-4): > 100 µM (inactive); GI50 (OVCAR-5): > 100 µM (inactive); GI50 (OVCAR-8): > 100 µM (inactive); GI50 (PC-3): > 100 µM (inactive); GI50 (RPMI-8226): > 100 µM (inactive); GI50 (RXF 393): > 100 µM (inactive); GI50 (SF-295): > 100 µM (inactive); GI50 (SF-539): > 100 µM (inactive); GI50 (SK-MEL-28): > 100 µM (inactive); GI50 (SK-MEL-2): > 100 µM (inactive); GI50 (SK-MEL-5): > 100 µM (inactive); GI50 (SK-OV-3): > 100 µM (inactive); GI50 (SN12C): > 100 µM (inactive); GI50 (SNB-19): > 100 µM (inactive); GI50 (SNB-75): > 100 µM (inactive); GI50 (SW-620): > 100 µM (inactive); GI50 (T47D): > 100 µM (inactive); GI50 (TK-10): > 100 µM (inactive); GI50 (U-251): > 100 µM (inactive); GI50 (UACC-257): > 100 µM (inactive); GI50 (UACC-62): > 100 µM (inactive); GI50 (UO-31): > 100 µM (inactive)

Question: What does the source list for `CN(C1=NCCO1)c1cccc2ccccc12`?
Answer: GI50 (A498): > 10 µM (inactive); GI50 (A549): > 10 µM (inactive); GI50 (ACHN): > 10 µM (inactive); GI50 (CAKI-1): > 10 µM (inactive); GI50 (CCRF-CEM): > 10 µM (inactive); GI50 (COLO 205): > 10 µM (inactive); GI50 (DU-145): > 10 µM (inactive); GI50 (EKVX): > 10 µM (inactive); GI50 (HCC 2998): > 10 µM (inactive); GI50 (HCT-116): > 10 µM (inactive); GI50 (HCT-15): > 10 µM; GI50 (HL-60): > 10 µM (inactive); GI50 (HOP-62): > 10 µM (inactive); GI50 (HT-29): > 10 µM (inactive); GI50 (Hs-578T): > 10 µM (inactive); GI50 (IGROV-1): > 10 µM (inactive); GI50 (K562): > 10 µM (inactive); GI50 (KM12): > 10 µM (inactive); GI50 (LOX IMVI): > 10 µM (inactive); GI50 (M14): > 10 µM (inactive); GI50 (MCF7): > 10 µM (inactive); GI50 (MDA-MB-231): > 10 µM (inactive); GI50 (MDA-MB-435): > 10 µM (inactive); GI50 (MDA-N): > 10 µM (inactive); GI50 (MOLT-4): > 10 µM (inactive); GI50 (Malme-3M): > 10 µM (inactive); GI50 (NCI-H226): > 10 µM (inactive); GI50 (NCI-H23): > 10 µM (inactive); GI50 (NCI-H460): > 10 µM (inactive); GI50 (NCI-H522): > 10 µM (inactive); GI50 (NCI/ADR-RES): > 10 µM (inactive); GI50 (OVCAR-3): > 10 µM (inactive); GI50 (OVCAR-4): > 10 µM (inactive); GI50 (OVCAR-5): > 10 µM (inactive); GI50 (OVCAR-8): > 10 µM (inactive); GI50 (PC-3): > 10 µM (inactive); GI50 (RPMI-8226): > 10 µM (inactive); GI50 (RXF 393): > 10 µM (inactive); GI50 (SF-268): > 10 µM (inactive); GI50 (SF-295): > 10 µM (inactive); GI50 (SF-539): > 10 µM (inactive); GI50 (SK-MEL-28): > 10 µM (inactive); GI50 (SK-MEL-2): > 10 µM (inactive); GI50 (SK-MEL-5): > 10 µM (inactive); GI50 (SK-OV-3): > 10 µM (inactive); GI50 (SN12C): > 10 µM (inactive); GI50 (SNB-19): > 10 µM (inactive); GI50 (SNB-75): 9.29 µM (inactive); GI50 (SR): > 10 µM (inactive); GI50 (SW-620): > 10 µM (inactive); GI50 (T47D): > 10 µM (inactive); GI50 (TK-10): > 10 µM (inactive); GI50 (U-251): > 10 µM (inactive); GI50 (UACC-62): > 10 µM (inactive); GI50 (UO-31): > 10 µM (inactive)
